± gives the expanded uncertainty stated by the source.
Conditions: Liquid, Closed cell (Static) method

CCO[Si](C)(Cl)Cl [dichloroethoxymethylsilane]
Conditions	vapor or sublimation pressure [kPa]
312.94 K	11.32 ± 0.12
318.43 K	14.32 ± 0.13
323.01 K	17.32 ± 0.15
326.93 K	20.32 ± 0.17
330.24 K	23.32 ± 0.2
333.29 K	26.32 ± 0.21
336.2 K	29.32 ± 0.23
338.84 K	32.33 ± 0.25
341.28 K	35.33 ± 0.26
343.57 K	38.33 ± 0.28
345.66 K	41.33 ± 0.31
347.54 K	44.33 ± 0.33
349.48 K	47.33 ± 0.33
351.36 K	50.33 ± 0.35
353.04 K	53.33 ± 0.37
354.72 K	56.33 ± 0.39
356.25 K	59.33 ± 0.4
357.82 K	62.33 ± 0.41
359.25 K	65.33 ± 0.45
360.57 K	68.33 ± 0.46
361.95 K	71.33 ± 0.47
363.22 K	74.33 ± 0.47
364.59 K	77.33 ± 0.47
365.87 K	80.33 ± 0.52
366.98 K	83.33 ± 0.53
368.21 K	86.33 ± 0.52
369.38 K	89.33 ± 0.55
370.5 K	92.33 ± 0.58
371.51 K	95.33 ± 0.6
372.58 K	98.33 ± 0.59
373.6 K	101.27 ± 0.6
